In patent US9493537B2, “Compounds with reduced ring size for use in diagnosing and treating melanoma, including metastatic melanoma and methods related to same” (STC.UNM, priority 2009, dated 2016):
Where two headings read alike, the source gives them in different places.

Assay: Biodistribution in B16/F1 melanoma-bearing C57 mice
Format: in vivo
Conditions: female, C57, mouse, iv, total radioactivity; for tissue uptake at 2 h / tissue uptake dose at 2 h: 2 h post-injection
Experimental: All the animal studies were conducted in compliance with Institutional Animal Care and Use Committee approval. The mice were housed five animals per cage in sterile micro-isolator cages in a temperature- and humidity-controlled room with a 12-h light/12-h dark schedule. […] C57 mice were subcutaneously inoculated on the right flank with 1×10^6 B16/F1 cells. The weight of tumors reached approximately 0.2 g 10 days post cell inoculation. […] Groups of 5 mice were sacrificed at 0.5, 2, 4 and 24 h post-injection, and tumors and organs of interest were harvested, weighed and counted. Blood values were taken as 6.5% of the whole-body weight. […] The mice were sacrificed at 2 h post-injection. The tumor and organs of interest were harvested, weighed and counted.
All animal studies were conducted in compliance with Institutional Animal Care and Use Committee approval. The pharmacokinetics of ^111In-DOTA-GGNle-CycMSHhex and ^111In-DOTA-GENle-CycMSHhex were determined in B16/F1 melanoma-bearing C57 female mice (Harlan, Indianapolis, Ind.). The C57 mice were subcutaneously inoculated with 1×10^6 B16/F1 cells on the right flank for each mouse to generate B16/F1 melanomas. Ten days post inoculation, the tumor weights reached approximately 0.2 g. Each melanoma-bearing mouse was injected with 0.037 MBq of ^111In-DOTA-GGNle-CycMSHhex or ^111In-DOTA-GENle-CycMSHhex via the tail vein. Groups of 5 mice were sacrificed at 0.5, 2, 4 and 24 h post-injection, and tumors and organs of interest were harvested, weighed and counted. Blood values were taken as 6.5% of the whole-body weight. The specificities of the tumor uptake of ^111In-DOTA-GGNle-CycMSHhex and ^111In-DOTA-GENle-CycMSHhex were determined by co-injecting 10 μg (6.07 nmol) of unlabeled NDP-MSH which is a linear α-MSH peptide analogue with picomolar MC1 receptor binding affinity.

CCCC[C@H](NC(=O)CN1CCN(CC(=O)O)CCN(CC(=O)O)CCN(CC(=O)O)CC1)C(=O)N[C@H]1CC(=O)NCCCC[C@@H](C(N)=O)NC(=O)[C@H](Cc2c[nH]c3ccccc23)NC(=O)[C@H](CCCNC(=N)N)NC(=O)[C@@H](Cc2ccccc2)NC(=O)[C@H](Cc2c[nH]cn2)NC1=O [^111In-DOTA-Nle-CycMSHhex, metal not drawn]
tissue uptake at 0.5 h (blood, 0.037 MBq, 0.5 h post-injection, read-out: Blood uptake): 3.33 ± 0.35 %ID/g | tissue uptake at 2 h (blood, 0.037 MBq, read-out: Blood uptake): 0.11 ± 0.07 %ID/g | tissue uptake at 4 h (blood, 0.037 MBq, 4 h post-injection, read-out: Blood uptake): 0.05 ± 0.02 %ID/g | tissue uptake at 24 h (blood, 0.037 MBq, 24 h post-injection, read-out: Blood uptake): 0.02 ± 0.01 %ID/g | tissue uptake at 2 h (blood, L-lysine co-injection, read-out: Blood uptake): 0.92 ± 0.48 %ID/g | tissue uptake at 2 h (blood, NDP blockade, read-out: Blood uptake): 0.07 ± 0.05 %ID/g | tissue uptake at 0.5 h (bone, 0.037 MBq, 0.5 h post-injection, read-out: Bone uptake): 1.34 ± 0.4 %ID/g | tissue uptake at 2 h (bone, 0.037 MBq, read-out: Bone uptake): 0.18 ± 0.1 %ID/g | tissue uptake at 4 h (bone, 0.037 MBq, 4 h post-injection, read-out: Bone uptake): 0.22 ± 0.15 %ID/g | tissue uptake at 24 h (bone, 0.037 MBq, 24 h post-injection, read-out: Bone uptake): 0.16 ± 0.03 %ID/g | tissue uptake at 2 h (bone, L-lysine co-injection, read-out: Bone uptake): 0.55 ± 0.14 %ID/g | tissue uptake at 2 h (bone, NDP blockade, read-out: Bone uptake): 0.05 ± 0.04 %ID/g | tissue uptake at 0.5 h (brain, 0.037 MBq, 0.5 h post-injection, read-out: Brain uptake): 0.21 ± 0.07 %ID/g | tissue uptake at 2 h (brain, 0.037 MBq, read-out: Brain uptake): 0.02 ± 0.01 %ID/g | tissue uptake at 4 h (brain, 0.037 MBq, 4 h post-injection, read-out: Brain uptake): 0.06 ± 0.03 %ID/g | tissue uptake at 24 h (brain, 0.037 MBq, 24 h post-injection, read-out: Brain uptake): 0.03 ± 0.01 %ID/g | tissue uptake at 2 h (brain, L-lysine co-injection, read-out: Brain uptake): 0.04 ± 0.01 %ID/g | tissue uptake at 2 h (brain, NDP blockade, read-out: Brain uptake): 0.01 ± 0.01 %ID/g | tissue uptake at 0.5 h (heart, 0.037 MBq, 0.5 h post-injection, read-out: Heart uptake): 1.24 ± 0.15 %ID/g | tissue uptake at 2 h (heart, 0.037 MBq, read-out: Heart uptake): 0.16 ± 0.1 %ID/g | tissue uptake at 4 h (heart, 0.037 MBq, 4 h post-injection, read-out: Heart uptake): 0.12 ± 0.03 %ID/g | tissue uptake at 24 h (heart, 0.037 MBq, 24 h post-injection, read-out: Heart uptake): 0.07 ± 0.05 %ID/g | tissue uptake at 2 h (heart, L-lysine co-injection, read-out: Heart uptake): 0.37 ± 0.02 %ID/g | tissue uptake at 2 h (heart, NDP blockade, read-out: Heart uptake): 0.06 ± 0.02 %ID/g | tissue uptake dose at 0.5 h (intestines, 0.037 MBq, 0.5 h post-injection, read-out: Intestines, percent injected dose): 2.16 ± 0.28 %ID | tissue uptake dose at 2 h (intestines, 0.037 MBq, read-out: Intestines, percent injected dose): 1.4 ± 0.56 %ID | tissue uptake dose at 4 h (intestines, 0.037 MBq, 4 h post-injection, read-out: Intestines, percent injected dose): 3.03 ± 1.06 %ID | tissue uptake dose at 24 h (intestines, 0.037 MBq, 24 h post-injection, read-out: Intestines, percent injected dose): 1.41 ± 0.86 %ID | tissue uptake dose at 2 h (intestines, L-lysine co-injection, read-out: Intestines, percent injected dose): 1.85 ± 0.73 %ID | tissue uptake dose at 2 h (intestines, NDP blockade, read-out: Intestines, percent injected dose): 1.14 ± 0.47 %ID | tissue uptake at 0.5 h (kidneys, 0.037 MBq, 0.5 h post-injection, read-out: Kidneys uptake): 16.2 ± 4.32 %ID/g | tissue uptake at 2 h (kidneys, 0.037 MBq, read-out: Kidneys uptake): 9.52 ± 0.44 %ID/g | tissue uptake at 4 h (kidneys, 0.037 MBq, 4 h post-injection, read-out: Kidneys uptake): 9.99 ± 1.39 %ID/g | tissue uptake at 24 h (kidneys, 0.037 MBq, 24 h post-injection, read-out: Kidneys uptake): 9.31 ± 0.91 %ID/g | tissue uptake at 2 h (kidneys, L-lysine co-injection, read-out: Kidneys uptake): 6.66 ± 0.62 %ID/g | tissue uptake at 2 h (kidneys, NDP blockade, read-out: Kidneys uptake): 11.6 ± 0.56 %ID/g | tissue uptake at 0.5 h (liver, 0.037 MBq, 0.5 h post-injection, read-out: Liver uptake): 2.75 ± 0.26 %ID/g | tissue uptake at 2 h (liver, 0.037 MBq, read-out: Liver uptake): 1.46 ± 0.2 %ID/g | tissue uptake at 4 h (liver, 0.037 MBq, 4 h post-injection, read-out: Liver uptake): 1.72 ± 0.07 %ID/g | tissue uptake at 24 h (liver, 0.037 MBq, 24 h post-injection, read-out: Liver uptake): 1.89 ± 0.14 %ID/g | tissue uptake at 2 h (liver, L-lysine co-injection, read-out: Liver uptake): 1.42 ± 0.3 %ID/g | tissue uptake at 2 h (liver, NDP blockade, read-out: Liver uptake): 1.46 ± 0.08 %ID/g | tissue uptake at 0.5 h (lung, 0.037 MBq, 0.5 h post-injection, read-out: Lung uptake): 2.45 ± 0.83 %ID/g | tissue uptake at 2 h (lung, 0.037 MBq, read-out: Lung uptake): 0.32 ± 0.1 %ID/g
